Source: patent US12084459B2, “2-(4-{1-[6-(4-isopropyl-phenyl)-imidazo[2,1-b][1,3,4]thiadiazol-2-yl]-piperidin-4-ylmethyl}-piperazin-1-yl)-ethanol and use thereof” (Urifer Ltd., priority 2020, dated 2024)

Test: toxicity in mice: body weight and observations after IP administration
Assay type: in vivo
Conditions: for body weight / body weight change (% wt/wt): female mice
How it was run: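 Mice (female where stated) received the test compound intraperitoneally on day 1, dissolved in 20% hydroxypropylcyclodextrane at an administration volume of 10 ml/kg. Toxicity was assessed from body weight, body weight change (% wt/wt) and observations of the animals after administration.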

CC(C)c1ccc(-c2cn3nc(N4CCC(CN5CCN(CCO)CC5)CC4)sc3n2)cc1 [Compound E266, 2-(4-{1-[6-(4-isopropyl-phenyl)-imidazo[2,1-b][1,3,4]thiadiazol-2-yl]-piperidin-4-ylmethyl}-piperazin-1-yl)-ethanol]
body weight (100 mg/kg IP, day 1): 36.1 g | body weight change (% wt/wt) (100 mg/kg IP, day 1): 0% | body weight (100 mg/kg IP, day 2): 35.7 g | body weight change (% wt/wt) (100 mg/kg IP, day 2): −1.1% | body weight (100 mg/kg IP, day 3): 36.1 g | body weight change (% wt/wt) (100 mg/kg IP, day 3): 0.0% | body weight (100 mg/kg IP, day 4): 35.2 g | body weight change (% wt/wt) (100 mg/kg IP, day 4): −2.5% | body weight (100 mg/kg IP, day 5): 34 g | body weight change (% wt/wt) (100 mg/kg IP, day 5): −5.8% | body weight (100 mg/kg IP, day 6): 33.9 g | body weight change (% wt/wt) (100 mg/kg IP, day 6): −6.1% | body weight (100 mg/kg IP, day 7): 34 g | body weight change (% wt/wt) (100 mg/kg IP, day 7): −5.8% | body weight (100 mg/kg IP, day 8): 33.6 g | body weight change (% wt/wt) (100 mg/kg IP, day 8): −6.9% | body weight (100 mg/kg IP, day 9): 32.4 g | body weight change (% wt/wt) (100 mg/kg IP, day 9): −10.2% | body weight (100 mg/kg IP, day 10): 33.5 g | body weight change (% wt/wt) (100 mg/kg IP, day 10): −7.2% | body weight (100 mg/kg IP, day 11): 32.6 g | body weight change (% wt/wt) (100 mg/kg IP, day 11): −9.7% | body weight (100 mg/kg IP, day 12): 33.4 g | body weight change (% wt/wt) (100 mg/kg IP, day 12): −7.5% | body weight (100 mg/kg IP, day 13): 32.8 g | body weight change (% wt/wt) (100 mg/kg IP, day 13): −9.1% | body weight (100 mg/kg IP, day 14): 32.2 g | body weight change (% wt/wt) (100 mg/kg IP, day 14): −10.8% | body weight (100 mg/kg IP, day 15): 32.4 g | body weight change (% wt/wt) (100 mg/kg IP, day 15): −10.2% | body weight (200 mg/kg IP, day 1): 31.5 g | body weight change (% wt/wt) (200 mg/kg IP, day 1): 0% | body weight (200 mg/kg IP, day 2): 30.5 g | body weight change (% wt/wt) (200 mg/kg IP, day 2): −3.2% | body weight (200 mg/kg IP, day 3): 30.8 g | body weight change (% wt/wt) (200 mg/kg IP, day 3): −2.2% | body weight (200 mg/kg IP, day 4): 30.6 g | body weight change (% wt/wt) (200 mg/kg IP, day 4): −2.9% | body weight (200 mg/kg IP, day 5): 30.6 g | body weight change (% wt/wt) (200 mg/kg IP, day 5): −2.9% | body weight (200 mg/kg IP, day 6): 30.9 g | body weight change (% wt/wt) (200 mg/kg IP, day 6): −1.9% | body weight (200 mg/kg IP, day 7): 31 g | body weight change (% wt/wt) (200 mg/kg IP, day 7): −1.6% | body weight (200 mg/kg IP, day 8): 31.1 g | body weight change (% wt/wt) (200 mg/kg IP, day 8): −1.3% | body weight (200 mg/kg IP, day 9): 30.6 g | body weight change (% wt/wt) (200 mg/kg IP, day 9): −2.9% | body weight (200 mg/kg IP, day 10): 31.2 g | body weight change (% wt/wt) (200 mg/kg IP, day 10): −1.0% | body weight (200 mg/kg IP, day 11): 29.9 g | body weight change (% wt/wt) (200 mg/kg IP, day 11): −5.1% | body weight (200 mg/kg IP, day 12): 30.6 g | body weight change (% wt/wt) (200 mg/kg IP, day 12): −2.9% | body weight (200 mg/kg IP, day 13): 30.6 g | body weight change (% wt/wt) (200 mg/kg IP, day 13): −2.9% | body weight (200 mg/kg IP, day 14): 30.8 g | body weight change (% wt/wt) (200 mg/kg IP, day 14): −2.2% | body weight (200 mg/kg IP, day 15): 30.5 g | body weight change (% wt/wt) (200 mg/kg IP, day 15): −3.2% | body weight (400 mg/kg IP, day 1): 31.1 g | body weight change (% wt/wt) (400 mg/kg IP, day 1): 0% | body weight (400 mg/kg IP, day 2): 30.5 g | body weight change (% wt/wt) (400 mg/kg IP, day 2): −1.9% | body weight (400 mg/kg IP, day 3): 29.6 g | body weight change (% wt/wt) (400 mg/kg IP, day 3): −4.8% | body weight (400 mg/kg IP, day 4): 28.6 g | body weight change (% wt/wt) (400 mg/kg IP, day 4): −8.0% | body weight (400 mg/kg IP, day 5): 28.4 g | body weight change (% wt/wt) (400 mg/kg IP, day 5): −8.7% | body weight (400 mg/kg IP, day 6): 28.5 g | body weight change (% wt/wt) (400 mg/kg IP, day 6): −8.4% | body weight (400 mg/kg IP, day 7): 28.4 g | body weight change (% wt/wt) (400 mg/kg IP, day 7): −8.7% | body weight (400 mg/kg IP, day 8): 28.7 g | body weight change (% wt/wt) (400 mg/kg IP, day 8): −7.7% | body weight (400 mg/kg IP, day 9): 29 g | body weight change (% wt/wt) (400 mg/kg IP, day 9): −6.8% | body weight (400 mg/kg IP, day 10): 29.3 g | body weight change (% wt/wt) (400 mg/kg IP, day 10): −5.8% | body weight (400 mg/kg IP, day 11): 29 g | body weight change (% wt/wt) (400 mg/kg IP, day 11): −6.8% | body weight (400 mg/kg IP, day 12): 29.4 g | body weight change (% wt/wt) (400 mg/kg IP, day 12): −5.5% | body weight (400 mg/kg IP, day 13): 29.8 g | body weight change (% wt/wt) (400 mg/kg IP, day 13): −4.2% | body weight (400 mg/kg IP, day 14): 29.8 g | body weight change (% wt/wt) (400 mg/kg IP, day 14): 4.2% | body weight (400 mg/kg IP, day 15): 29.2 g | body weight change (% wt/wt) (400 mg/kg IP, day 15): −6.1% | toxicity (male and female mice, 100-400 mg/kg IP in 20% hydroxypropylcyclodextrane, 10 ml/kg): not toxic
